Source: US5066676A, “Sulfonamido derivative inhibiting the aldose reductase enzyme system and pharmaceutical compositions containing them” (Laboratori Baldacci SpA, priority 1987, dated 1991)

What was measured:
Acute toxicity: rat = details: in vivo, rat (Wistar), 20 ml/kg, read-out: % Death
From the text: (§1) The toxicity tests after only one administration have been carried out on two animal species (mice and rats), using two administration routes (os, iv).
(§2) The compounds have been administered by gastric probe, suspended in Methocell or by injection (iv) dissolved in physiological solution with the addition of sodium bicarbonate.
(§3) The animals have been kept under observation for 15 days. The controls have been carried out several times in the first days and twice a day in the next days. In the table 1 the conditions used and the results obtained are reported.
Wistar rats, of both sexes have been used of average weight of 120 g, fasted after 18 hours and with water at libitum. The conditions of stalling and the administration ways were the same as those reported in the preceeding paragraph (acute toxicity: mouse).

Acute toxicity: mice = details: in vivo, mouse (Swiss), read-out: % Death
Description: as §1
For these tests Swiss mice have been used, of both sexes, having average weight 20 g, fasted after 18 hours and administered with water ad libitum. The animals were maintained under standard environment conditions (temperature: 20°-22° C. and moisture 50%).
as §2, §3

aldose reductase = target: T1, aldose reductase (Bos taurus, UniProt P16116); experiment: In vitro inhibition of aldose reductase activity of raw extracts from bovine crystalline lens; format: biochemical; details: for inhibiting action of the aldose reductase activity (in words): bovine lens extract; for IC50: glyceraldehyde substrate, NADPH, pH 6.8, 37° C., read-out: IC50 on the aldose reductase activity of raw extracts originating from bovine crystalline lens
T1 construct: 4 bovine crystalline lenses (8 g) are homogenized by means of Potter in ice bath; from tissue; host or cells: bovine crystalline lens
Description: "In vitro" tests have been carried out to evalute the inhibition of the aldose reductase activity, prepared from the extract of bovine crystalline lenses.
PREPARATION OF THE RAW EXTRACTS
4 bovine crystalline lenses (8 g) are homogenized by means of Potter in ice bath with 40 ml of 50 mM phosphate buffer, pH 6.8, containing 2-mercaptoethanol pH ([…]). After centrifugation (12.000×g -20 min-4° C.) the supernatant is brought to 40% saturation with an ammonium sulphate and centrifugated again (14.000×g). The supernatant is then brought to the 80% saturation ((NH4)2 SO4) and, after centrifugation for 20 minutes and at 14.000×g, the sedimented matter is recovered and suspended in 7 ml of phosphate buffer. The enzymatic preparation is dialyzed by ultrafiltration with AMICON ultrafiltration cell.
DOSAGE OF THE ENZYMATIC ACTIVITY
The reference cuvette contains all the several substances apart from the substrate.

[1] = test system: diabetic cataract in the rat; experiment: Action on the appearance of the diabetic cataract (rat); format: in vivo; details: Table 7, 25 mg/kg/die per os
Description: (§4) With the compound bearing the abbreviation ARI 6 the following tests have been carried out in the rat and in the rabbit.
Action on the appearance of the diabetic cataract (rat).
Effects of the administration of ARI 6 (25 mg/kg/die, per os)
on the appearance of the diabetic cataract in the rat.
The values are expressed as percentages. Within brackets there are indicated the animals for each group.
Effects of the administration of ARI-1 (25 mg/kg/die, per os)

[2] = test system: galactosemic cataract in the rat; experiment: Action on the appearance of the galactosemic cataract (rat); format: in vivo
Description: as §4
Action on the appearance of the galactosemic cataract (rat)
Effects of the administration of ARI-6 (5 and 25 mg/kg/die, os)
on the appearance of the galactosemic cataract in the rat.
[…] In the brackets the number of animals for each group is indicated.
The diet contains D-galactose 50%.
Effects of the administration of ARI-1 (5 and 25 mg/kg/die, os)

[3] = day 10 from streptozotocine, * p < 0.05 vs controls
[4] = day 15 from streptozotocine, * p < 0.05 vs controls
[5] = day 20 from streptozotocine, * p < 0.05 vs controls
[6] = day 25 from streptozotocine, * p < 0.05 vs controls
[7] = day 30 from streptozotocine, * p < 0.05 vs controls
[8] = day 35 from streptozotocine, * p < 0.05 vs controls
[9] = day 40 from streptozotocine, * p < 0.05 vs controls
[10] = day 45 from streptozotocine, * p < 0.05 vs controls
[11] = day 50 from streptozotocine, * p < 0.05 vs controls
[12] = Table 6, 5 mg/kg/die os, day 5 of diet
[13] = Table 6, 5 mg/kg/die os, day 10 of diet, * p < 0.05 vs controls
[14] = Table 6, 5 mg/kg/die os, day 15 of diet, * p < 0.05 vs controls
[15] = Table 6, 5 mg/kg/die os, day 20 of diet, * p < 0.05 vs controls
[16] = Table 6, 5 mg/kg/die os, day 25 of diet, * p < 0.05 vs controls
[17] = Table 6, 5 mg/kg/die os, day 30 of diet, * p < 0.05 vs controls
[18] = Table 6, 5 mg/kg/die os, day 35 of diet, * p < 0.05 vs controls
[19] = Table 6, 5 mg/kg/die os, day 40 of diet, * p < 0.05 vs controls
[20] = Table 6, 5 mg/kg/die os, day 45 of diet, * p < 0.05 vs controls
[21] = Table 6, 5 mg/kg/die os, day 50 of diet
[22] = Table 6, 25 mg/kg/die os, day 5 of diet
[23] = Table 6, 25 mg/kg/die os, day 10 of diet, * p < 0.05 vs controls
[24] = Table 6, 25 mg/kg/die os, day 15 of diet, * p < 0.05 vs controls
[25] = Table 6, 25 mg/kg/die os, day 20 of diet, * p < 0.05 vs controls
[26] = Table 6, 25 mg/kg/die os, day 25 of diet, * p < 0.05 vs controls
[27] = Table 6, 25 mg/kg/die os, day 30 of diet, * p < 0.05 vs controls
[28] = Table 6, 25 mg/kg/die os, day 35 of diet, * p < 0.05 vs controls
[29] = Table 6, 25 mg/kg/die os, day 40 of diet, * p < 0.05 vs controls
[30] = Table 6, 25 mg/kg/die os, day 45 of diet, * p < 0.05 vs controls
[31] = Table 6, 25 mg/kg/die os, day 50 of diet

Compound: CN(CC(=O)O)S(=O)(=O)c1ccc2oc3ccc(F)cc3c(=O)c2c1 [ARI 8, 7-fluoro-2-(N-methyl-N-carboxymethyl)sulfamoylxanthone]
- mortality at 360 h (Acute toxicity: rat; po, 5000 mg/kg/os): 30%
- mortality at 360 h (Acute toxicity: rat; 500 mg/kg/iv): 40%
- mortality at 360 h (Acute toxicity: rat; 400 (unit and route not given)): 0%
- mortality at 360 h (Acute toxicity: mice; po, 5000 mg/kg/os): 10%
- mortality at 360 h (Acute toxicity: mice; 400 mg/kg/iv): 0%
- inhibiting action of the aldose reductase activity (in words) (aldose reductase): higher activity, with respect to the of sorbinil and of ARI 1
- IC50 (aldose reductase): 1000 nM

Compound: Cc1cc(C)c(S(=O)(=O)N(C)CC(=O)O)cc1S(=O)(=O)N(C)CC(=O)O [ARI 1, 4,6-dimethyl-1,3-bis (N-methyl-N-caboxymethl) sulfamoybenzene]
- mortality at 360 h (Acute toxicity: rat; po, 5000 mg/kg/os): 0%
- mortality at 360 h (Acute toxicity: rat; 500 mg/kg/iv): 0%
- mortality at 360 h (Acute toxicity: mice; po, 5000 mg/kg/os): 0%
- mortality at 360 h (Acute toxicity: mice; 500 mg/kg/iv, 20 ml/kg): 0%
- number of eyes with cataract with respect the total number of observed eyes ([1]; day 5 from streptozotocine): 0/20
- percentage of eyes with cataract ([1]; day 5 from streptozotocine): 0.0%
- number of eyes with cataract with respect the total number of observed eyes [1, 3]: 0/20
- percentage of eyes with cataract [1, 3]: 0.0%
- number of eyes with cataract with respect the total number of observed eyes [1, 4]: 0/20
- percentage of eyes with cataract [1, 4]: 0.0%
- number of eyes with cataract with respect the total number of observed eyes [1, 5]: 0/20
- percentage of eyes with cataract [1, 5]: 0.0%
- number of eyes with cataract with respect the total number of observed eyes [1, 6]: 0/20
- percentage of eyes with cataract [1, 6]: 0.0%
- number of eyes with cataract with respect the total number of observed eyes [1, 7]: 0/20
- percentage of eyes with cataract [1, 7]: 0.0%
- number of eyes with cataract with respect the total number of observed eyes [1, 8]: 0/20
- percentage of eyes with cataract [1, 8]: 0.0%
- number of eyes with cataract with respect the total number of observed eyes [1, 9]: 4/20
- percentage of eyes with cataract [1, 9]: 20.0%
- number of eyes with cataract with respect the total number of observed eyes [1, 10]: 6/20
- percentage of eyes with cataract [1, 10]: 30.0%
- number of eyes with cataract with respect the total number of observed eyes [1, 11]: 20/20
- percentage of eyes with cataract [1, 11]: 100.0%
- number of eyes with cataract on the total number of observed eyes [2, 12]: 0/20
- percentage of eyes with cataract [2, 12]: 0.0%
- number of eyes with cataract on the total number of observed eyes [2, 13]: 0/20
- percentage of eyes with cataract [2, 13]: 0.0%
- number of eyes with cataract on the total number of observed eyes [2, 14]: 0/20
- percentage of eyes with cataract [2, 14]: 0.0%
- number of eyes with cataract on the total number of observed eyes [2, 15]: 0/20
- percentage of eyes with cataract [2, 15]: 0.0%
- number of eyes with cataract on the total number of observed eyes [2, 16]: 3/20
- percentage of eyes with cataract [2, 16]: 15.0%
- number of eyes with cataract on the total number of observed eyes [2, 17]: 4/20
- percentage of eyes with cataract [2, 17]: 20.0%
- number of eyes with cataract on the total number of observed eyes [2, 18]: 8/20
- percentage of eyes with cataract [2, 18]: 40.0%
- number of eyes with cataract on the total number of observed eyes [2, 19]: 8/20
- percentage of eyes with cataract [2, 19]: 100.0%
- number of eyes with cataract on the total number of observed eyes [2, 20]: 20/20
- percentage of eyes with cataract [2, 20]: 100.0%
- number of eyes with cataract on the total number of observed eyes [2, 21]: 20/20
- percentage of eyes with cataract [2, 21]: 100.0%
- number of eyes with cataract on the total number of observed eyes [2, 22]: 0/20
- percentage of eyes with cataract [2, 22]: 0.0%
- number of eyes with cataract on the total number of observed eyes [2, 23]: 0/20
- percentage of eyes with cataract [2, 23]: 0.0%
- number of eyes with cataract on the total number of observed eyes [2, 24]: 0/20
- percentage of eyes with cataract [2, 24]: 0.0%
- number of eyes with cataract on the total number of observed eyes [2, 25]: 0/20
- percentage of eyes with cataract [2, 25]: 0.0%
- number of eyes with cataract on the total number of observed eyes [2, 26]: 0/20
- percentage of eyes with cataract [2, 26]: 0.0%
- number of eyes with cataract on the total number of observed eyes [2, 27]: 0/20
- percentage of eyes with cataract [2, 27]: 0.0%
- number of eyes with cataract on the total number of observed eyes [2, 28]: 0/20
- percentage of eyes with cataract [2, 28]: 0.0%
- number of eyes with cataract on the total number of observed eyes [2, 29]: 3/20
- percentage of eyes with cataract [2, 29]: 15.0%
- number of eyes with cataract on the total number of observed eyes [2, 30]: 5/20
- percentage of eyes with cataract [2, 30]: 25.0%
- number of eyes with cataract on the total number of observed eyes [2, 31]: 20/20
- percentage of eyes with cataract [2, 31]: 100.0%
- IC50 (aldose reductase): 3600 nM

Compound: CN(CC(=O)O)S(=O)(=O)c1ccc2oc3ccc(S(=O)(=O)N(C)CC(=O)O)cc3c(=O)c2c1 [ARI 9, 2,7-bis (N-methyl-N-carboxymethyl) sulfamoylxanthone]
- inhibiting action of the aldose reductase activity (in words) (aldose reductase): higher activity, with respect to the of sorbinil and of ARI 1
- IC50 (aldose reductase): 1000 nM
